Format in all cases: cell-based
One assay deals with HIV-1 IIIB. Put plainly: Inhibition of HIV-1 induced syncytium formation in CEM cells, HIV-1 IIIB (wild type). As to conditions: Human immunodeficiency virus 1, CCRF-CEM, 96 h, day 4 post infection. The text has this:
(§1) CEM cells were obtained from the American Tissue Cell Culture Collection (Rockville, Md.). HIV-1 (IIIB) was originally obtained from the culture supernatant of persistently HIV-1-infected H9 cells and was provided by R. C. Gallo and M. Popovic (National Cancer Institute, National Institutes of Health, Bethesda, Md.). The selection and characterization of the HIV-1 RT mutant strains were done as follows: HIV-1/100-Ile ("100-Ile") was selected for resistance against TIBO R82150 as described in Balzarini et al, Virology 192: 246-253 (1993); HIV-1/103-Asn ("103-Asn") was selected for resistance against TIBO R82913 as described in Balzarini et al, Virology 192: 246-253 (1993); HIV-1/106-Ala ("106-Ala") was selected for resistance against nevirapine as described in Balzarini et al, J. Virol. 67: 5353-5359 (1993); HIV-1/138-Lys ("138-Lys") was selected for resistance against TSAO-m^3T as described in Balzarini et al, Virology 192: 246-253 (1993) and Balzarini et al, Proc. Nat. Acad. Sci. U.S.A. 90: 6952-6956 (1993); HIV-1/181-Cys ("181-Cys") was selected for resistance against pyridinone L-697,661 as described in Balzarini et al, Virology 192: 246-253 (1993); and HIV-1/188-His ("188-His") was selected for resistance against HEPT as described in Balzarini et al, Mol. Pharmocol. 44: 694-701 (1993). 188-His was then further converted to HIV-1/188-Leu ("188-Leu") upon further passage in cell culture in the absence of the HEPT.
(§2) CEM cells were suspended at ≈300,000 cells per mL of culture medium and infected with approximately 100 CCID50 (CCID50 being the 50% cell culture infective dose) of HIV-1 (IIIB) or one of the HIV-1 RT mutant strains described above. Then 100 μL of the infected cell suspensions was added to 200 μL microtiter plate wells containing 100 μL of appropriate serial (5-fold) dilutions of the test compounds. The inhibitory effect of the test compounds on HIV-1 induced syncytium formation in CEM cells was examined microscopically on day 4 post infection. The 50% effective concentration (EC50) was defined as the test compound concentration that inhibits syncytium formation in the HIV-1 infected cell cultures by 50%.

In a further assay the test system is HIV-1/138-Lys. Put plainly: Inhibition of HIV-1 induced syncytium formation in CEM cells, RT mutant 138-Lys. As to conditions: Human immunodeficiency virus 1, CCRF-CEM, 96 h, read-out: EC50 138-Lys.
Source text: as §1, §2

A further assay deals with HIV-1/181-Cys. Put plainly: Inhibition of HIV-1 induced syncytium formation in CEM cells, RT mutant 181-Cys. The conditions noted are these: Human immunodeficiency virus 1, CCRF-CEM, 96 h, read-out: EC50 181-Cys.
Source text: as §1
(§3) CEM cells were suspended at ≈300,000 cells per mL of culture medium and infected with approximately 100 CCID50 (CCID50 being the 50% cell culture infective dose) of HIV-1 (IIIB) or one of the HIV-1 RT mutant strains described above. Then 100 μL of the infected cell suspensions was added to 200 μL microtiter plate wells containing 100 μL of appropriate serial (5-fold) dilutions of the test compounds. The inhibitory effect of the test compounds on HIV-1 induced syncytium formation in CEM cells was examined microscopically on day 4 post infection. […]

A further assay has as its system HIV-1/106-Ala. Description: Inhibition of HIV-1 induced syncytium formation in CEM cells, RT mutant 106-Ala. As to conditions: Human immunodeficiency virus 1, CCRF-CEM, 96 h, read-out: EC50 106-Ala.
Source text: as §1, §3

The next assay relates to HIV-1/100-Ile. Description: Inhibition of HIV-1 induced syncytium formation in CEM cells, RT mutant 100-Ile. As to conditions: Human immunodeficiency virus 1, CCRF-CEM, 96 h, read-out: EC50 100-Ile.
Source text: as §1, with “188-His was then further converted to HIV-1/188-Leu ("188-Leu") upon further passage in cell culture in the absence of the HEPT.” left out

The test system of a further assay is HIV-1/103-Asn. Put plainly: Inhibition of HIV-1 induced syncytium formation in CEM cells, RT mutant 103-Asn. As to conditions: Human immunodeficiency virus 1, CCRF-CEM, 96 h, read-out: EC50 103-Asn.
Source text: as §1, with “188-His was then further converted to HIV-1/188-Leu ("188-Leu") upon further passage in cell culture in the absence of the HEPT.” left out

For a further assay, the system named is HIV-1/188-Leu. Put plainly: Inhibition of HIV-1 induced syncytium formation in CEM cells, RT mutant 188-Leu. As to conditions: Human immunodeficiency virus 1, CCRF-CEM, 96 h, read-out: EC50 188-Leu.
Source text: as §1, with “188-His was then further converted to HIV-1/188-Leu ("188-Leu") upon further passage in cell culture in the absence of the HEPT.” left out

Converted amounts (≈) assume the structure as drawn.

As a reminder, the EC50 is the concentration at which the effect is half-maximal. Take `Cc1occc1C(=O)Nc1ccc(Cl)c(C=NN(C)C)c1` [Compound 1]: the figures for the EC50 in the assay with HIV-1 IIIB and with HIV-1/138-Lys were 0.225 µg/mL (≈ 0.736 µM) and 1.6 µg/mL (≈ 5.23 µM), respectively.
Take `Cc1occc1C(=S)Nc1ccc(Cl)c(C=NN(C)C)c1` [Compound 2]: the EC50 was determined as 0.008 µg/mL (≈ 0.0249 µM) in the assay with HIV-1 IIIB; 0.04 µg/mL (≈ 0.124 µM) in the assay on HIV-1/138-Lys; 0.13 µg/mL (≈ 0.404 µM) with HIV-1/181-Cys; 0.065 µg/mL (≈ 0.202 µM) with HIV-1/106-Ala; 0.14 µg/mL (≈ 0.435 µM) in the assay with HIV-1/100-Ile; 0.65 µg/mL (≈ 2.02 µM) with HIV-1/103-Asn.
As to `Cc1occc1C(=O)Nc1ccc(Cl)c(C=NN2CCCC2)c1` [Compound 3], the concentration giving a half-maximal response (EC50) turned out to be 0.325 µg/mL (≈ 0.979 µM) with HIV-1 IIIB, 1.6 µg/mL (≈ 4.82 µM) with HIV-1/138-Lys, 1 µg/mL (≈ 3.01 µM) in the assay with HIV-1/181-Cys and 1.3 µg/mL (≈ 3.92 µM) with HIV-1/106-Ala.
`Cc1occc1C(=S)Nc1ccc(Cl)c(C=NN2CCCC2)c1` [Compound 4]: the half-maximal effective concentration (EC50) with HIV-1 IIIB is 0.015 µg/mL (≈ 0.0431 µM); in the assay on HIV-1/138-Lys, 0.08 µg/mL (≈ 0.23 µM); with HIV-1/181-Cys it was 0.1 µg/mL (≈ 0.287 µM); in the assay on HIV-1/106-Ala, 0.1 µg/mL (≈ 0.287 µM); with HIV-1/100-Ile it was 0.33 µg/mL (≈ 0.949 µM); in the assay with HIV-1/103-Asn it was 0.34 µg/mL (≈ 0.977 µM). Also, the EC50 in the assay on HIV-1/188-Leu was determined as 4.5 µg/mL (≈ 12.9 µM).
Consider `Cc1occc1C(=S)Nc1ccc(Cl)c(C=NN2CCOCC2)c1` [Compound 5, N-[4-chloro-3-[(4-morpholinylimino)methyl]phenyl]-2-methyl-3-furancarbothioamide], for which, in the assay with HIV-1 IIIB, the EC50 came to 0.13 µg/mL (≈ 0.357 µM).

Source of the values: US5914351A, “Anti-viral aromatic hydrazones” (Uniroyal Chemical Company, Inc., priority 1997, dated 1999).
